Data as given in patent US20260206754A1, “HETEROARYL COMPOUNDS FOR THE CONTROL OF INVERTEBRATE PESTS” (priority 2022, published 2026).
Where two headings read alike, the source gives them in different places.

Experiments:
Assay type in all cases: in vivo
[1] = test system: tobacco budworm (Heliothis virescens); assay: B.1 Tobacco budworm, 96-well microtiter plate diet test with eggs; settings: for mortality at 2500 ppm: 120 h, egg and larval mortality after 5 days, read-out: mortality in comparison with untreated controls
Procedure: (§1) If not otherwise specified, the test solutions were prepared as follow: The active compound was dissolved at the desired concentration in a mixture of 1:1 (vol:vol) distilled water:acetone. The test solution was prepared on the day of use.
B.1 Tobacco Budworm (Heliothis virescens)
For evaluating control of tobacco budworm (Heliothis virescens) the test unit consisted of 96-well-microtiter plates containing an insect diet and 15-25 H. virescens eggs.
The compounds were formulated using a solution containing 75% v/v water and 25% v/v DMSO. Different concentrations of formulated compounds were sprayed onto the insect diet at 10 μl, using a custom-built micro atomizer, at two replications.
After application, microtiter plates were incubated at about 28±1° C. and about 80±5% relative humidity for 5 days. Egg and larval mortality was then visually assessed.

[2] = test system: boll weevil (Anthonomus grandis); assay: B.2 Boll weevil, 96-well microtiter plate diet test with eggs; settings: Anthonomus grandis; for mortality at 2500 ppm: 120 h, egg and larval mortality after 5 days, read-out: mortality in comparison with untreated controls
Procedure: as §1
B.2 Boll Weevil (Anthonomus grandis)
For evaluating control of boll weevil (Anthonomus grandis) the test unit consisted of 96-well-microtiter plates containing an insect diet and 5-10 A. grandis eggs.
The compounds were formulated using a solution containing 75% v/v water and 25% v/v DMSO. Different concentrations of formulated compounds were sprayed onto the insect diet at 5 μl, using a custom-built micro atomizer, at two replications.
After application, microtiter plates were incubated at about 25±1° C. and about 75±5% relative humidity for 5 days. Egg and larval mortality was then visually assessed.

[3] = test system: Southern armyworm (Spodoptera eridania), 2nd instar larvae; assay: B.3 Southern armyworm, 2nd instar larvae, foliar spray on lima bean plants; settings: 96 h, 4 days after treatment, read-out: mortality in comparison with untreated controls
Procedure: B.3 Southern Armyworm (Spodoptera eridania), 2nd Instar Larvae
The active compounds were formulated by a Tecan liquid handler in 100% cyclohexanone as a 10,000-ppm solution supplied in tubes. The 10,000-ppm solution was serially diluted in 100% cyclohexanone to make interim solutions. These served as stock solutions for which final dilutions were made by the Tecan in 50% acetone:50% water (v/v) into 10 or 20 ml glass vials. A non-ionic surfactant (Kinetic@) was included in the solution at a volume of 0.01% (v/v). The vials were then inserted into an automated electrostatic sprayer equipped with an atomizing nozzle for application to plants/insects. Lima bean plants (variety Sieva) were grown 2 plants to a pot and selected for treatment at the 1st true leaf stage. Test solutions were sprayed onto the foliage by an auto-mated electrostatic plant sprayer equipped with an atomizing spray nozzle. The plants were dried in the sprayer fume hood and then removed from the sprayer. Each pot was placed into perforated plastic bags with a zip closure. Ten to 11 armyworm larvae were placed into the bag and the bags zipped closed. Test plants were maintained in a growth room at about 25° C. and about 20-40% relative humidity for 4 days, avoiding direct exposure to fluorescent light (14:10 light:dark photoperiod) to prevent trapping of heat inside the bags. Mortality and reduced feeding were assessed 4 days after treatment, compared to untreated control plants.

[4] = test system: yellow fever mosquito (Aedes aegypti); assay: whole plant or invertebrate; settings: for mortality at 2500 ppm: 48 h, larval mortality after 2 days, read-out: mortality in comparison with untreated controls
Procedure: as §1
B.5 Yellow Fever Mosquito (Aedes aegypti)
For evaluating control of yellow fever mosquito (Aedes aegypti) the test unit consisted of 96-well-microtiter plates containing 200 μl of tap water per well and 5-15 freshly hatched A. aegypti larvae.
The active compounds were formulated using a solution containing 75% (v/v) water and 25% (v/v) DMSO. Different concentrations of formulated compounds or mixtures were sprayed onto the insect diet at 2.5 μl, using a custom-built micro atomizer, at two replications.
After application, microtiter plates were incubated at 281° C., 80±5% RH for 2 days. Larval mortality was then visually assessed.

[5] = test system: green peach aphid (Myzus persicae); assay: B.6 Green peach aphid, systemic test with artificial diet under membrane
Procedure: as §1
B.6 Green Peach Aphid (Myzus persicae)
For evaluating control of green peach aphid (Myzus persicae) through systemic means, the test unit consisted of 96-well-microtiter plates containing liquid artificial diet under an artificial membrane.
The compounds were formulated using a solution containing 75% v/v water and 25% v/v DMSO. Different concentrations of formulated compounds were pipetted into the aphid diet, using a custom built pipetter, at two replications.
After application, 5-8 adult aphids were placed on the artificial membrane inside the microtiter plate wells. The aphids were then allowed to suck on the treated aphid diet and incubated at about 23±1° C. and about 50±5% relative humidity for 3 days. Aphid mortality and fecundity was then visually assessed.

[6] = 72 h, aphid mortality after 3 days, read-out: mortality in comparison with untreated controls

SMILES | mortality at 90 ppm ([1]; 90 ppm, comparative experiment C.1) [%] | mortality at 2500 ppm [1] [%] | mortality at 2500 ppm [2] [%] | mortality at 300 ppm [3] [%] | mortality at 2500 ppm [4] [%] | mortality at 30 ppm ([5]; comparative experiment C.1) [%] | mortality at 2500 ppm [5, 6] [%] | mortality at 30 ppm ([2]; 30 ppm, comparative experiment C.3) [%] | mortality at 90 ppm ([5]; 90 ppm, comparative experiment C.3) [%] | mortality at 90 ppm ([2]; comparative experiment C.4) [%] | mortality at 90 ppm ([4]; 90 ppm, comparative experiment C.4, read-out: B.5, 90 ppm (mortality)) [%] | mortality at 30 ppm ([5]; comparative experiment C.4) [%] | mortality at 30 ppm ([5]; comparative experiment C.2) [%] | mortality at 90 ppm ([2]; comparative experiment C.5) [%] | mortality at 80 ppm ([4]; 80 ppm, comparative experiment C.5, read-out: B.5, 80 ppm (mortality)) [%] | mortality at 2500 ppm ([5]; comparative experiment C.5, read-out: B.6, 2500 ppm (mortality)) [%]
CC(NC(=O)c1cc(C(F)(F)F)cc(C(F)(F)F)c1)c1nccnc1-n1ncc(-c2ccccn2)n1 (stereo not drawn) [I-14, N-[1-[3-[4-(2-pyridyl)triazol-2-yl]pyrazin-2-yl]ethyl]-3,5-bis(trifluoro-methyl)benzamide] | 100 | ≥ 75 | ≥ 75 | ≥ 75 | ≥ 75 | 100 | ≥ 75 |  |  |  |  |  |  |  |  | 
CC(NC(=O)c1cc(C(F)(F)F)cc(C(F)(F)F)c1)c1nccnc1-n1cc(-c2cccnc2)nn1 (stereo not drawn) [I-9] |  | ≥ 75 | ≥ 75 | ≥ 75 | ≥ 75 |  | ≥ 75 | 100 | 100 |  |  |  |  |  |  | 
CC(NC(=O)c1cc(C(F)(F)F)cc(C(F)(F)F)c1)c1nccnc1-n1cc(-c2ccncn2)cn1 (stereo not drawn) [I-42] |  | ≥ 75 | ≥ 75 | ≥ 75 | ≥ 75 |  | ≥ 75 |  |  | 100 | 100 | 100 |  |  |  | 
CC(NC(=O)c1cc(C(F)(F)F)cc(C(F)(F)F)c1)c1nccnc1-n1ncc(-c2cccnc2)n1 (stereo not drawn) [I-8] |  | ≥ 75 | ≥ 75 | ≥ 75 | ≥ 75 |  | ≥ 75 |  |  |  |  |  | 100 |  |  | 
CC(NC(=O)c1cc(C(F)(F)F)cc(C(F)(F)F)c1)c1nccnc1-n1cc(S(C)(=O)=O)cn1 (stereo not drawn) [I-17, N-[1-[3-(4-methylsulfonylpyrazol-1-yl)pyrazin-2-yl]ethyl]-3,5-bis(trifluoromethyl)benzamide] |  | ≥ 75 | ≥ 75 | ≥ 75 | ≥ 75 |  | ≥ 75 |  |  |  |  |  |  | 100 | 100 | 100
